Data set [1] can be described thus: clinical. The conditions noted are these: blood plasma of individual dialysis patients treated with acetic acid-containing dialysis fluid, dialysis time 4 hr. As to the method: Into a polypropylene tube, each sample (400 μL, samples for calibration curve and human blood plasma) was taken, and the internal standard solution IS-W1 (100 μL) was added thereto. Further, 10% sulfosalicylic acid (special grade, manufactured by Wako Pure Chemical Industries) solution (100 μL) was added thereto and stirred. To this solution was added MTBE (400 μL, Lot No. EPF0734, manufactured by Wako Pure Chemical Industries) and stirred for 1 minute. After that, the mixture was subjected to centrifugation (RX-200, manufactured by TOMY SEIKO) at 10000 rpm at 4° C. for 5 minutes, and the supernatant (200 μL) was taken into another glass vial. Then, to the supernatant was added N-methyl-N-(tert-butyldimethylsilyl)trifluoroacetamide (MTBSTFA) (5 to 10 μL, Lot No. BCBC7878, manufactured by ALDRICH) and heated with Block Heater (DTU-2B, manufactured by TAITEC) at 60° C. for 1 to 2 hours. After that, the resultant solution was measured by using GC/MS (JMS-AMII150, manufactured by JEOL) in the following conditions.
Samples were pretreated in the same method as that of “4. Pretreatment method and measurement method for samples” of Example 1, and then measured by GC/MS (5975C GCMSD, manufactured by Agilent) in the following conditions. […]
(§1) The measured value of each sample was calculated by applying the peak area ratio or ΔE to the calibration curve, and rounding off to one decimal place.

Data set [2] can be described thus: clinical. The conditions noted are these: blood plasma of individual dialysis patients treated with acetic acid-containing dialysis fluid, dialysis time 4 hr. On the procedure: From ΔE of samples for calibration curve (W2 to 8, n=1), calibration curve (Y=aX+b, Y: ΔE, X: concentration μmol/L) was prepared by using least-squares method. No weighting of calibration curve was carried out. The range of quantitative analysis was from 20 to 2000 μmol/L.
as §1
The source holds these as a separate data set.

Values joined by “and” are separate entries in the source; they are usually repeats but may differ in a detail not shown here. Identical values can stand only once.

Consider `CC(=O)O` [acetic acid], for which the “Measured value, GC/MS method” value in the data set “clinical [1]” is 1745.5 µmol/L and 1854.9 µmol/L and 1991.5 µmol/L. For the same molecule, the concentration at 4 h in the data set “clinical [1]” (human, plasma, other: dialysis with a dialysis fluid containing acetic acid, Measured value, GC/MS method) stood at 1790 µM; in the data set “clinical [2]” (human, plasma, other: dialysis with a dialysis fluid containing acetic acid, Measured value, Enzyme method) it was 1680 µM. Also, in the data set “clinical [2]”, the “Measured value, Enzyme method” value is 1620.3 µmol/L and 1653.5 µmol/L and 1896.4 µmol/L.

Source of the values: US20140315322A1 (FUSO PHARMACEUTICAL INDUSTRIES, LTD., priority 2011, published 2014).
